# Reference: ChEMBL document CHEMBL1157539, “Thousands of chemical starting points for antimalarial lead identification” (Nature, 2010)
# Tested on: Plasmodium falciparum
# Experiment: GSK_TCMDC: Inhibition of Plasmodium falciparum 3D7 in whole erythrocytes, using parasite LDH activity as an index of growth.
# Format: functional, organism-based
# Settings: Plasmodium falciparum, 3D7
row,SMILES,XC50
1,CCOC(=O)c1cccc(NC(=N)Nc2nc(C)cc(NCCc3ccccc3)n2)c1,0.684 µM
2,O=C(CCNc1ccnc(NCCc2ccccc2)n1)Nc1ccccc1,0.836 µM
3,Clc1cc(Cl)c2c(c1)C(NCCCNc1nc3ccccc3[nH]1)CCO2 (stereo not drawn),0.325 µM
4,O=C1C(c2ccccc2)=C(Nc2cccc([N+](=O)[O-])c2)c2ccccc21,0.892 µM
5,CCNc1cc(C(=O)N[C@@H](Cc2ccccc2)[C@H](O)CNCc2cccc(OC)c2)c(OC)c(N2CCCCS2(=O)=O)c1,0.689 µM
6,Nc1ncc(-c2ccccc2)cc1/C=C/c1cccnc1,1.12 µM
7,CCCN1CCN(CCCNc2c3ccccc3nc3ccccc23)CC1,0.547 µM
8,CNc1ccc(CNCc2cccc(-c3ccc(-c4nc5cc(C(F)(F)F)ccc5[nH]4)cc3)c2)cc1,0.112 µM
9,COc1cccc(CN2CCC(N3CCc4cc(NC(=O)c5cc(C)on5)ccc43)C2)c1OC (stereo not drawn),0.952 µM
10,CCOc1ccc(OCC(=O)Nc2nc(-c3ccc(OC)cc3)c(C)s2)cc1,0.22 µM
11,COc1cccc2c(N/N=C/c3ccc([N+](=O)[O-])cc3)ccnc12,0.888 µM
12,Cc1cc(NC2CCCC2)nc(Nc2ccccc2)n1,0.985 µM
13,COCCn1c(Sc2ccc(C#N)c([N+](=O)[O-])c2)nnc1-c1ccc(N(C)C)cc1,1.03 µM
14,CC(C)(C)SCC(O)Cn1c2ccc(Br)cc2c2cc(Br)ccc21 (stereo not drawn),1 µM
15,N#Cc1nc2ccc(OCCN(Cc3ccccc3C(F)(F)F)c3ccc(C#N)c(C(F)(F)F)c3)cc2s1,0.855 µM
16,O=C(/C=C/c1ccc(Cl)c(Cl)c1)NCCCCCN1CCC(NC(=O)Nc2ccccc2Cl)CC1,0.714 µM
17,Oc1c(Cl)cc(Nc2nccc(Nc3ccc(Oc4ccccc4)cc3)n2)cc1Cl,0.786 µM
18,N#Cc1cc(C(=O)c2cc(Br)ccc2O)cn(-c2cc(Cl)cc(Cl)c2)c1=O,0.879 µM
19,O=C(NCc1ccc(F)cc1)Nc1ccc(-c2ccc(-c3nc4ccccc4[nH]3)cc2)cc1,0.0907 µM
20,CS(=O)(=O)Nc1cccc(-c2cnc3[nH]cc(-c4ccc(CCC(=O)O)cc4)c3c2)c1,1.06 µM
21,N#Cc1ccccc1Sc1ccccc1C(=O)Nc1ccc2ccccc2n1,0.507 µM
22,c1nc(CCNc2nc(Nc3ccc4c(c3)OCO4)nc(NC3CCCC3)n2)c[nH]1,1.15 µM
23,CC(C)c1ccc(CN2CCCCC(NC(=O)c3cc(-c4cccc(F)c4)cs3)C2)cc1 (stereo not drawn),0.945 µM
24,CCc1c[nH]c2c(N3CCCCC3=O)cc(C(=O)N[C@@H](Cc3ccccc3)[C@H](O)CNCc3cccc(OC)c3)cc12,0.169 µM
25,CN(C)c1cccc(CCNCCc2c[nH]c3ccc(Cl)cc23)c1,0.436 µM

row,SMILES,XC50
1,CCCCn1c(C(C)Oc2ccc(Cl)cc2Cl)nc2cc(S(N)(=O)=O)ccc21 (stereo not drawn),0.707 µM
2,CCCc1cc(O)c2c3c(c(=O)oc2c1)CN(C)CC3,0.873 µM
3,CN1CCN(CC(=O)Nc2ccc(-c3csc(-c4nc5ccccc5[nH]4)c3)cc2)CC1,1.56 µM
4,COCCOc1ccc(Nc2nccc(-c3c(-c4cccc(NC(=O)c5c(F)cccc5F)c4)nn4ccccc34)n2)cc1F,0.95 µM
5,c1ccc(CN2CCC(NCc3ccccc3-c3cccc(CNC4CCCC4)c3)CC2)cc1,0.718 µM
6,COc1cccc(CNC(=O)c2cnc(N3CCN(c4ccncc4)CC3)c(Cl)c2)c1,1.15 µM
7,COc1cc(CNCCCNc2nc3ncccc3[nH]2)c2[nH]cc(Br)c2c1,1.16 µM
8,CC(=O)C=C1CC(=O)N(C[C@@H](O)[C@H]2O[C@@H]3OC(C)(C)O[C@@H]3[C@H]2O)c2ccccc2N1,1.26 µM
9,N#CC(c1ccc(Cl)cc1)c1ccc2c(C(F)(F)F)cc(C(F)(F)F)nc2n1 (stereo not drawn),1.01 µM
10,O=C(Nc1cccc(-c2cccc(-c3nc4ccccc4[nH]3)c2)c1)c1ccoc1,0.741 µM
11,O=C(NCCCCN1CCC(c2ccc3c(c2OCc2ccncc2)CCCC3)CC1)c1ccc(NC(=O)c2ccc(Cl)cc2)cc1,0.218 µM
12,CC1(C)N=C(NC(=O)c2cc([N+](=O)[O-])cc([N+](=O)[O-])c2)N=C(N)N1OCc1cccc2ccccc12,0.00684 µM
13,CN(C(=O)Nc1ccc(F)cc1)C1CCN(CCCCCNC(=O)/C=C/c2ccc(Cl)c(Cl)c2)CC1,0.886 µM
14,CC(C)(C)CNc1noc(-c2sccc2Br)n1,1.12 µM
15,N#Cc1ccc(C(=O)Nc2ccc(-c3cccc(CN4CCCC4)c3)cc2)cc1,1 µM
16,CCN(CC)CCNc1ccc(Nc2ccnc3cc4ccccc4cc23)cc1,0.197 µM
17,CC(=O)Nc1ccc(S(=O)(=O)Nc2ccc(Nc3nc(C)cc(N(C)C)n3)cc2)cc1,1.16 µM
18,Cc1nc2nc(N)nc(N)c2c(C)c1Cc1c(Cl)cccc1Cl,0.0489 µM
19,Cc1c(O)cccc1Nc1ccnc2ccc(C(F)(F)F)cc12,0.0311 µM
20,CN1CCN(CCCN(Cc2cccc(-c3ccc(CNCCc4ccccc4)cc3)c2)C(=O)c2cccs2)CC1,0.716 µM
21,O=C(/C=C/c1ccc(Cl)c(Cl)c1)NCCCCCN1CCC(NC(=O)Nc2cccc(Cl)c2Cl)CC1,0.667 µM
22,CCn1ccc2c(N3CCCS3(=O)=O)cc(C(=O)N[C@@H](Cc3ccccc3)[C@H](O)CNC3CCCCC3)cc21,0.137 µM
23,Cc1cccc2nc(-c3cccc(-c4cccc(CNC(C)C)c4)c3)[nH]c12,0.336 µM
24,CC(=O)Nc1ncc(C(=O)Nc2cccc(-c3ccc(-c4nc5cccc(C)c5[nH]4)cc3)c2)s1,0.643 µM
25,COc1ccc(N2CCN(C(CNC(=O)C3CCCCC3)c3ccc4c(c3)OCO4)CC2)cc1 (stereo not drawn),0.566 µM

row,SMILES,XC50
1,O=C(Nc1cccc(CN2CCCN(CCc3ccccc3)CC2)c1)c1ccc(Cl)c(Cl)c1,0.952 µM
2,CC(=O)Nc1ccc2[nH]cc(C3CCN(CC4CCN(C(=O)/C=C/c5ccc(Cl)c(Cl)c5)CC4)CC3)c2c1,0.723 µM
3,CCc1cccc(NC(=O)c2ccc(CN3CCCN(CC4CCCCC4)CC3)cc2)c1,0.402 µM
4,CC(C)COc1ccc(Cl)cc1Cc1ccc(-c2nc3cc(N4CCN(C)CC4)ccc3[nH]2)o1,0.945 µM
5,CCC(C)OC(=O)C1=C(C)NC2=C(C(=O)CC(c3ccc(OC)c(OC)c3)C2)C1c1ccc(C)o1 (stereo not drawn),0.899 µM
6,CN(C)c1cccc(NC(=O)NC2N=C(c3ccccc3)c3ccccc3N(CC(=O)N(C)c3ccccc3)C2=O)c1 (stereo not drawn),0.947 µM
7,CC(C)C[C@H](NC(=O)c1ccc(OCCN2CCOCC2)cc1)C(=O)NC(/C=N/N1CCCC1=O)C(C)C (stereo partly drawn),0.248 µM
8,CNCCNCc1cccc(-c2ccc(-c3nc4ccccc4[nH]3)cc2)c1,0.743 µM
9,Fc1cc(Cl)ccc1Nc1ccnc2cc(-c3ccc(CN4CCSCC4)o3)ccc12,0.782 µM
10,Oc1ccccc1CCNC1CCc2ccccc2C1 (stereo not drawn),0.928 µM
11,CN1CC=C(c2csc3ccc(NC(=O)Nc4ccc(-c5ccncc5)c(Cl)c4)cc23)CC1,0.681 µM
12,CC1Cc2ccccc2N1S(=O)(=O)c1cccc(C(=O)Nc2nc(-c3ccccn3)cs2)c1 (stereo not drawn),1.32 µM
13,Oc1ccc(CCNc2nc(NCCCOc3ccccc3-c3cccc(C(F)(F)F)c3)nc(N3CCNCC3)n2)cc1,0.882 µM
14,CCOC(=O)c1ccc(NCc2ccccn2)cc1,0.626 µM
15,COc1ccc2[nH]c(C)cc(=NN=Cc3ccncc3)c2c1,0.697 µM
16,C=CCN(C(=O)c1ccc(Cl)c([N+](=O)[O-])c1)c1nc(-c2ccccc2)cs1,0.398 µM
17,CCC1N=C(N)N=C(N)N1OCCCOc1c(Cl)cc(Cl)cc1Cl (stereo not drawn),0.0032 µM
18,Cc1cccc2nc(-c3cccc(-c4ccc(NC(=O)NC5CC5c5ccccc5)cc4)c3)[nH]c12 (stereo not drawn),0.719 µM
19,O=c1cc(NCCCNCc2cccc(OC(F)(F)C(F)F)c2)[nH]c2ccccc12,1.27 µM
20,Cc1cnc(N2CCN(CCCN3CCCC3)CC2)nc1Oc1ccc(-n2ccnc2)cc1,0.898 µM
21,Cc1ccc(C2CC(c3cccs3)=NN2C(=O)c2ccc(Br)o2)cc1 (stereo not drawn),0.887 µM
22,CCNc1cc(C(=O)N[C@@H](Cc2ccccc2)[C@H](O)CNC2(Cc3cccc(Cl)c3)CCC2)cc(N2CCCCS2(=O)=O)c1,1.18 µM
23,Cc1nn(-c2ccccc2)nc1C(=O)NC1CCN(CCNC(=O)c2ccc(Cl)c(Cl)c2)CC1,0.868 µM
24,CNC(=O)c1cncc(/C=C/c2ccccc2S(N)(=O)=O)c1,0.694 µM
25,CCC(C)c1cnc2nc(N)nc(N)c2c1C (stereo not drawn),0.444 µM

row,SMILES,XC50
1,CC(=O)c1ccc(-c2ccc(C(=O)NCCCCN3CCC(c4ccc5c(c4O)CCCC5)CC3)cc2)cc1,0.762 µM
2,CCN(CC)CCOc1ccc(C(O)(C#CC(O)(c2ccccc2)c2ccc(OCCN(CC)CC)cc2)c2ccccc2)cc1 (stereo not drawn),1.31 µM
3,CC(C)n1ncc2c3c(N)nc(N)nc3ccc21,0.333 µM
4,Cc1ccc(Cn2ncc(N3CCC(N)CC3)c(Cl)c2=O)cc1NC(=O)Nc1ccc(-c2ccccc2)cc1,0.917 µM
5,CC(CN(C)C)C(=O)Nc1ccc(-c2cccc(-c3nc4ccccc4[nH]3)c2)cc1 (stereo not drawn),0.722 µM
6,COc1ccc(CNCc2ccsc2)cc1-c1ccc(S(=O)(=O)NCCN2CCCC2)s1,0.766 µM
7,NCCCNc1ccnc2cc(Cl)ccc12,0.305 µM
8,CC[C@H](NC(=O)c1ccc(NC(=O)OC(C)(C)C)cc1)C(=O)N[C@@H](CO)C(=O)NCCCCc1ccccc1,0.83 µM
9,CCn1ccc2c3c(N)nc(N)nc3ccc21,0.313 µM
10,Nc1nccc2ccc(-c3cccc(O)c3)cc12,0.642 µM
11,CCNc1cc(C(=O)N[C@@H](Cc2ccccc2)[C@H](O)CNCCc2ccccc2)cc(N2CCCCS2(=O)=O)c1,0.936 µM
12,N#Cc1ccc(NC(=O)c2ccc(Cc3ccc4c(c3)CCN(C3CCC3)CC4)cn2)cc1,1.12 µM
13,O=C1COC2(CN1C1CCN(Cc3ccc(O)c(Cl)c3)C1)c1ccccc1-c1ccccc12 (stereo not drawn),0.96 µM
14,CCCCc1cc(NCc2ccncc2)nc(Nc2ccccc2)n1,0.843 µM
15,CN(CCCCNC(=O)/C=C/c1ccccc1)C1CC2(CCN(C(=O)OC(C)(C)C)CC2)c2ccccc21 (stereo not drawn),1.14 µM
16,Cc1cccc2nc(-c3ccc(-c4cccc(NC(=O)Nc5cccc(C#N)c5)c4)cc3)[nH]c12,0.544 µM
17,CN(C)CCNC(=O)NC1CN(c2ncnc3cc(-c4ccccc4)sc23)C1,0.585 µM
18,COc1cc2nc(NCCc3ccccc3)nc(NCCCc3ccccc3)c2cc1OC,0.158 µM
19,Cn1c2c(c3ccccc31)CN(CCC1(c3ccc(Cl)c(Cl)c3)CN(C(=O)c3ccccc3)CCO1)CC2 (stereo not drawn),0.311 µM
20,COc1cc(-n2cnc3cc(-c4ccc(Cl)cc4)sc3c2=O)ccc1OCCN1CCC(c2cccc(NC(C)=O)c2)CC1,0.553 µM
21,CC(C)c1ccc(NS(=O)(=O)c2cccc(C(=O)NC3CCN(CC4CCCCC4)CC3)c2)cc1,1.3 µM
22,Cc1ccc(CN2CCN(c3cc4c(cc3Cl)CCN4C(=O)Cc3ccc(Cl)c(NC(=O)Nc4cccc(C#N)c4)c3)CC2)cc1,1.13 µM
23,c1ccc2[nH]c(-c3ccc(-c4ccc(CN5CCN(CCN6CCOCC6)CC5)cc4)s3)nc2c1,0.28 µM
